Assay results taken from ChEMBL document CHEMBL1857833, “Screening and optimization of specific chemical series against human African Trypanosomiasis (HAT)”.
Converted amounts (≈) assume the structure as drawn. “And” between values parts separate entries of the source, which are not always exact repeats. Equal values may be shown once.

Legend:
[1] = DNDI: Lipophilicity measured in Chromatographic hydrophobicity index (CHI) assay, pH 7.4; type: physicochemical; conditions: buffer
[2] = DNDI: Solubility in phosphate buffered saline at pH7.4 measured by nephelometry at room temperature (NEPH-RT); type: physicochemical; conditions: pH 7.4
[3] = DNDI: Cytotoxicity against L929 mouse fibroblasts, 72 hour.; type: toxicity, cell-based; conditions: mouse, L929 mouse fibroblasts
[4] = mouse, microsomes, 1 µM
Description: DNDI: in vitro intrinsic clearance in mouse liver microsomes at a concentration of 1uM

in vitro = conditions: mouse, liver microsomes, t (1 / 2)
Description: DNDI: half life in mouse liver microsomes at a concentration of 1uM

Trypanosoma brucei [5] = assay: DNDI: Inhibition of Human African Trypanosomiasis, SBRI 427, in vitro; type: functional, organism-based
[6] = DNDI: Cytotoxicity against L929 mouse fibroblasts, CYTO-SP, 24 hour; type: toxicity, cell-based; conditions: mouse, L929 mouse fibroblasts
Trypanosoma brucei [7] = assay: DNDI: Inhibition of Human African Trypanosomiasis, Cross 22, in vitro; type: functional, organism-based
[8] = Trypanosoma brucei, SBRI 427, read-out: IC50

Row | SMILES | chromatographic logD [1] | solubility kinetic [2] [µM] | IC50 at 72 h [3] [mg/L] | CLint in vitro [4] [µL/min/mg] | half-life at 1 µM (in vitro) [min] | IC50 (Trypanosoma brucei [5]; [8]) [mg/L] | IC50 at 24 h [6] [mg/L] | IC50 (Trypanosoma brucei [7]) [mg/L] | IC50 (Trypanosoma brucei [5])
1 | COc1ccc(CNC(CC(C)C)c2nc(Cc3ccccc3)c(N3CCOCC3)o2)cc1 (configuration not stated) | > 5.2 | 25 (≈ 11.2 µg/mL) | > 10 | 463 | 2 | 2.23 (≈ 4.96 µM) |  |  | 
2 | O/N=C(/Nc1ccc(F)cc1)c1ccccc1-c1ccccc1 | 3.98 | 25 (≈ 7.66 µg/mL) |  | 59 | 14 | 3.46 (≈ 11.3 µM) | > 50 |  | 
3 | C[C@@H]1[C@H]2C[C@@H](C[C@H]1NCc1coc(-c3ccc(-c4ccccc4)cc3)n1)C2(C)C |  |  | < 3.13 |  |  | 0.24 (≈ 0.621 µM) | 8.15 (≈ 21.1 µM) | 0.37 (≈ 0.957 µM) | 0.19 mg/L (≈ 0.492 µM)
4 | CCCCOc1ccc(-c2nc(CNC[C@@H]3CC[C@H]4C[C@@H]3C4(C)C)co2)cc1 |  |  | < 3.13 | 95 | 9 |  | 16.4 (≈ 42.9 µM) | 1.03 (≈ 2.69 µM) | 1.54 mg/L and 0.83 mg/L and 0.57 mg/L
5 | O/N=C(/c1ccccc1-c1ccccc1)N1CCCCC1 | 4.46 | 50 (≈ 14 µg/mL) |  | 157 | 5 | > 5 | > 50 |  | 
6 | COc1ccc(/C(=N/O)Nc2cccc(C#N)c2)cc1 | 2.41 | 50 (≈ 13.4 µg/mL) | > 10 |  |  | > 5 |  |  | 
7 | CCCCc1ccc(-c2nc(CNCCN3CCCC3)co2)cc1 | 4.89 | < 1 | 3.87 (≈ 11.8 µM) | 33 | 26 | 0.84 (≈ 2.57 µM) |  |  | 
8 | CC1(C)[C@H]2CC[C@@H](CNCc3coc(-c4ccc(Cl)cc4)n3)[C@@H]1C2 |  |  | 3.52 (≈ 10.2 µM) |  |  | 0.8 (≈ 2.32 µM) | > 50 | 1.04 (≈ 3.02 µM) | 0.9 mg/L and 1.53 mg/L
9 | C[C@@H]1[C@H]2C[C@@H](C[C@H]1NCc1coc(-c3ccc(Br)cc3)n1)C2(C)C |  |  | < 3.13 |  |  |  | > 50 | 0.82 (≈ 2.11 µM) | 0.42 mg/L and 0.92 mg/L and 0.85 mg/L
10 | CCCCCC(C)NCc1coc(-c2ccc(OCC(=O)c3ccccc3)cc2)n1 (configuration not stated) | 4.16 | 2 (≈ 0.813 µg/mL) | 1.74 (≈ 4.28 µM) | 188 | 5 | 0.59 (≈ 1.45 µM) |  |  | 
11 | c1ccc(-c2ccc(-c3nc(CNC4[C@H]5C[C@@H]6C[C@@H](C[C@H]4C6)C5)co3)cc2)cc1 (some centres not stated) |  |  | 9.8 (≈ 25.5 µM) |  |  | 1.18 (≈ 3.07 µM) | > 50 | 0.92 (≈ 2.39 µM) | 0.7 mg/L and 0.85 mg/L
12 | N=C(NC1CCCCC1)c1ccccc1-c1ccccc1 | 2.87 | > 200 |  |  |  | > 5 | > 50 |  | 
13 | CCC(C)C(NCc1ccccc1OC)c1nc(-c2ccccc2)c(N2CCCCC2)o1 (configuration not stated) | > 5.2 | 2 (≈ 0.867 µg/mL) | > 10 | 227 | 4 | 4.82 (≈ 11.1 µM) |  |  | 
14 | Clc1ccc(-c2nc(CNC3[C@H]4C[C@@H]5C[C@@H](C[C@H]3C5)C4)co2)cc1 (some centres not stated) |  |  | 6.73 (≈ 19.6 µM) |  |  | 1.8 (≈ 5.25 µM) | > 50 | 2.29 (≈ 6.68 µM) | 2.01 mg/L and 2.82 mg/L
15 | COc1ccc(/C(=N/O)Nc2cccc(F)c2)cc1 | 3.09 | 50 (≈ 13 µg/mL) | > 10 | 143.33 | 5.93 | 0.67 (≈ 2.57 µM) |  |  | 
16 | Brc1ccc(-c2nc(CNC3CCCCCC3)co2)cc1 |  |  | 15.7 (≈ 44.9 µM) |  |  |  | > 50 | 3.56 (≈ 10.2 µM) | 3.22 mg/L and 1.69 mg/L and 3.92 mg/L
17 | CCCCCOc1ccc(-c2nc(CNC3CC(C)CC(C)(C)C3)co2)cc1 (configuration not stated) | 6.02 | 2 (≈ 0.769 µg/mL) | < 3.13 | 8 | 107 | 0.16 (≈ 0.416 µM) | > 50 |  | 
18 | O=C1CCCN1CCCNc1cc(-c2ccccc2)nc2cc(-c3ccc(F)cc3)nn12 | 4.77 | 6 (≈ 2.58 µg/mL) | > 10 |  |  | > 5 |  |  | 
19 | CC1CC(NCc2coc(-c3ccc(Cl)cc3)n2)CC(C)(C)C1 (configuration not stated) |  |  | < 3.13 |  |  | 1.18 (≈ 3.54 µM) | > 50 | 0.85 (≈ 2.55 µM) | 0.86 mg/L and 1.52 mg/L
20 | CC1(C)[C@H]2CC[C@@H](CNCc3coc(-c4ccc(Br)cc4)n3)[C@@H]1C2 |  |  | 50 (≈ 128 µM) |  |  | > 5 | > 50 | > 5 | 
21 | CC(C)(C)c1ccc(-c2nc(CNC3[C@H]4C[C@@H]5C[C@@H](C[C@H]3C5)C4)co2)cc1 (some centres not stated) |  |  | 13 (≈ 35.8 µM) | 14 | 59 |  | > 50 | 0.83 (≈ 2.28 µM) | 0.87 mg/L and 0.51 mg/L and 1.1 mg/L
22 | CC1CC(NCc2coc(-c3ccc(Br)cc3)n2)CC(C)(C)C1 (configuration not stated) |  |  | < 3.13 |  |  |  | > 50 | 0.87 (≈ 2.31 µM) | 0.54 mg/L and 0.97 mg/L and 1.17 mg/L

Row | SMILES | chromatographic logD [1] | solubility kinetic [2] [µM] | IC50 at 72 h [3] [mg/L] | CLint in vitro [4] [µL/min/mg] | half-life at 1 µM (in vitro) [min] | IC50 (Trypanosoma brucei [5]; [8]) [mg/L] | IC50 at 24 h [6] [mg/L] | IC50 (Trypanosoma brucei [7]) [mg/L] | IC50 (Trypanosoma brucei [5])
23 | CCCCCOc1ccc(-c2nc(CNCCC3CCCN3C)co2)cc1 (configuration not stated) | 5.2 | < 1 | 1.21 (≈ 3.26 µM) | 11 | 76 | 0.14 (≈ 0.377 µM) |  |  | 
24 | CCCCOc1ccc(-c2nc(CNCCC3CCCN3C)co2)cc1 (configuration not stated) | 4.64 | 2 (≈ 0.715 µg/mL) | 2.9 (≈ 8.11 µM) | 12 | 73 | 0.31 (≈ 0.867 µM) |  |  | 
25 | COc1ccc(/C(=N\O)Nc2ccccc2)cc1 | 3.1 | > 200 |  | 121 | 7 | 2.72 (≈ 11.2 µM) | > 50 |  | 
26 | O/N=C(\NC1CCCCC1)C1CCCCC1 | 4.41 | > 200 |  |  |  | > 5 | > 50 |  | 
27 | CN1CC(OC(=O)c2ccccc2)=CC1=O | 2.34 | > 200 | > 10 |  |  | > 5 |  |  | 
28 | CCCCOc1ccc(-c2nc(CN[C@@H]3C[C@@H]4C[C@H]([C@H]3C)C4(C)C)co2)cc1 |  |  | < 3.13 |  |  |  | 8.05 (≈ 21 µM) | 0.58 (≈ 1.52 µM) | 0.61 mg/L and 0.72 mg/L and 0.29 mg/L
29 | Cc1ccc(-c2nc(CNCCC3CCCN3C)c(C)o2)cc1 (configuration not stated) | 3.3 | > 200 | 7.78 (≈ 24.8 µM) |  |  | 0.43 (≈ 1.37 µM) |  |  | 
30 | CCCCCC(C)NCc1coc(-c2ccc(OC3CCCCC3)cc2)n1 (configuration not stated) | 4.28 | 3 (≈ 1.11 µg/mL) | 1.48 (≈ 3.99 µM) | 13 | 65 | 0.39 (≈ 1.05 µM) |  |  | 
31 | CC1CC(NCc2coc(-c3ccc(C(C)(C)C)cc3)n2)CC(C)(C)C1 (configuration not stated) |  |  | > 50 |  |  | > 5 | > 50 | > 5 | 
32 | CCCCc1ccc(-c2nc(CNCCN(C)C)co2)cc1 | 4.97 | 1 (≈ 0.301 µg/mL) | 4.87 (≈ 16.2 µM) | 55 | 15 | 0.79 (≈ 2.62 µM) |  |  | 
33 | CCC(C)C1C(=O)CC(=O)N1C(=O)OC(C)(C)C (configuration not stated) | 4.54 | > 200 | > 10 |  |  | > 5 |  |  | 
34 | Fc1cccc(-c2cc3nc(-c4ccccc4)cc(NCCCN4CCCC4)n3n2)c1 | 4.79 | 3 (≈ 1.25 µg/mL) | 2.49 (≈ 5.99 µM) |  |  | 1.02 (≈ 2.45 µM) |  |  | 
35 | COc1ccc(/C(=N/O)Nc2ccc(F)cc2)cc1 | 3.02 | 100 (≈ 26 µg/mL) | > 10 | 118 | 7 | 4.54 (≈ 17.4 µM) |  |  | 
36 | CCN(CC)CCCNc1cc(-c2ccccc2)nc2cc(-c3ccc(F)cc3)nn12 | 4.84 | 25 (≈ 10.4 µg/mL) | 3.05 (≈ 7.3 µM) |  |  | 2.46 (≈ 5.89 µM) |  |  | 
37 | CC(C)(C)c1ccc(-c2nc(CNC[C@@H]3CC[C@H]4C[C@@H]3C4(C)C)co2)cc1 |  |  | > 50 |  |  | > 5 | > 50 | > 5 | 
38 | Brc1ccc(-c2nc(CNC3[C@H]4C[C@@H]5C[C@@H](C[C@H]3C5)C4)co2)cc1 (some centres not stated) |  |  | 8.08 (≈ 20.9 µM) |  |  |  | > 50 | 2.26 (≈ 5.83 µM) | 1.2 mg/L and 3.02 mg/L and 2.81 mg/L
39 | CCCCOc1ccc(-c2nc(CNC3[C@H]4C[C@@H]5C[C@@H](C[C@H]3C5)C4)co2)cc1 (some centres not stated) |  |  | < 3.13 |  |  | 0.36 (≈ 0.946 µM) | 15.9 (≈ 41.8 µM) | 0.34 (≈ 0.893 µM) | 0.37 mg/L and 0.29 mg/L
40 | C[C@@H]1[C@H]2C[C@@H](C[C@H]1NCc1coc(-c3ccc(C(C)(C)C)cc3)n1)C2(C)C |  |  | > 50 |  |  | > 5 | > 50 | > 5 | 
41 | Cc1cccc(-c2nc(CNCCC3CCCN3C)c(C)o2)c1 (configuration not stated) | 3.3 | > 200 | 9.29 (≈ 29.6 µM) |  |  | 0.55 (≈ 1.75 µM) |  |  | 
42 | COc1ccc(C(=O)OC2=CC(=O)N(C)C2)cc1 | 2.72 | > 200 | > 10 |  |  | > 5 |  |  | 
43 | Clc1ccc(-c2nc(CNC3CCCCCC3)co2)cc1 |  |  | 3.43 (≈ 11.3 µM) |  |  | 1.27 (≈ 4.17 µM) | 26.6 (≈ 87.3 µM) | 1.45 (≈ 4.76 µM) | 1.61 mg/L and 1.55 mg/L
44 | C[C@H]1C(NCc2coc(-c3ccc(Cl)cc3)n2)C[C@@H]2C[C@H]1C2(C)C (some centres not stated) |  |  | < 3.13 |  |  | 1.06 (≈ 3.07 µM) | > 50 | 0.9 (≈ 2.61 µM) | 0.71 mg/L and 0.8 mg/L
